Source: patent publication US12673052B2, “Combinations for the treatment of cancer” (Exelixis, Inc., priority 2020, dated 2026)

Tests used:
[1] = Single-dose plasma PK, IV and oral (PEG 400:EtOH:RO water); assay type: in vivo, rats
Experimental: (§1) Plasma PK of Compound 1 was characterized in rats and beagle dogs. Toxicokinetic (TK) evaluations of oral Compound 1 were evaluated in repeat-dose studies in rats and dogs. Plasma protein binding was determined in mouse, rat, dog, monkey, and human plasma in vitro. Biotransformation and metabolite profiling of Compound 1 were investigated in vitro using mouse, rat, dog, monkey, and human liver microsomal fractions and hepatocytes and in vivo in rats and dogs. P-glycoprotein (P-gp) and breast cancer resistance protein (BCRP) transporter interaction studies, in vitro experiments evaluating cytochrome P450 (CYP) induction and inhibition by Compound 1, and CYP and glucuronosyltransferase (UGT) substrate specificity studies of Compound 1 were also performed.
The PK and TK of Compound 1 were assessed in rats and dogs after intravenous (IV; only single dose PK) and oral (PO) administration of Compound 1 in formulations prepared in polyethylene glycol 400 (PEG 400): ethanol (EtOH): reverse osmosis water (RO Water) (45:5:50 v/v/v).
Median time to maximum plasma concentration (Tmax) occurred at approximately 2-3 hours in rats and dogs.
(§2) The mean plasma t1/2, z values were approximately 9 hours in rats and 4 hours in dogs. Interspecies scaling based on body weight to predict PK parameters in humans could not be performed because dogs (larger species) cleared Compound 1 faster than rats (smaller species). Therefore, the human PK was projected based on one species (rat). […] This apparent clearance value (CL/F) was used to predict steady-state exposure (AUC and average plasma concentration [Cavg]) in humans for the proposed first-in-human (FIH) starting dose for Study Compound 1-001.

[2] = Hepatocyte stability assay; assay type: in vitro ADME, human; conditions: hepatocytes
Experimental: as §2
(§3) In the liver microsomal stability assay, CLint was 0.601 mL/min/g liver in mouse, 0.563 mL/min/g liver in rat, 0.315 mL/min/g liver in dog, 0.734 mL/min/g liver in monkey, and 0.639 mL/min/g liver in human. In the hepatocyte stability assay, Compound 1 CLint was 0.373 mL/min/g liver in mouse, 0.285 mL/min/g liver in rat, 1.08 mL/min/g liver in dog, 0.533 mL/min/g liver in monkey, and 0.317 mL/min/g liver in human.

BCRP = BCRP (Homo sapiens, UniProt Q9UNQ0); test: Transporter interaction study (substrate and inhibition); assay type: in vitro ADME
BCRP, sequence (Q9UNQ0 whole entry): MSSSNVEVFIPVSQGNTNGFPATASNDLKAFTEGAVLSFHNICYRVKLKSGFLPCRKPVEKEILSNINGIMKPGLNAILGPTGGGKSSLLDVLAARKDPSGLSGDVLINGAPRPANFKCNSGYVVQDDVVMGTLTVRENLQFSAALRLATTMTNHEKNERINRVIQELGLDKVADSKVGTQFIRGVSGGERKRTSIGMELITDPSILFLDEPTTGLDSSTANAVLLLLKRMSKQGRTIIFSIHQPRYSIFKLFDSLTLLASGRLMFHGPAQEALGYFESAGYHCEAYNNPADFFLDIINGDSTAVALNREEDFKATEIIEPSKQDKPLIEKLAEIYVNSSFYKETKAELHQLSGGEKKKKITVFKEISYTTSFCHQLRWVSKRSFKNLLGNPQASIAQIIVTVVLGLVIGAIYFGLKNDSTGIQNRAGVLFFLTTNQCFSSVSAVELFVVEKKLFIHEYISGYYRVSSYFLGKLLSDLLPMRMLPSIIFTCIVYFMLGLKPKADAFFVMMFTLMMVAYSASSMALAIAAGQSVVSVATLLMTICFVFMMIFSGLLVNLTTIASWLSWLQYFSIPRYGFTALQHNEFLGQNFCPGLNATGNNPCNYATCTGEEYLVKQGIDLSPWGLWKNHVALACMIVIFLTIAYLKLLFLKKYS
Experimental: as §1

P-gp = P-gp (Homo sapiens, UniProt P08183); test: as above; assay type: in vitro ADME
P-gp, sequence (P08183 whole entry): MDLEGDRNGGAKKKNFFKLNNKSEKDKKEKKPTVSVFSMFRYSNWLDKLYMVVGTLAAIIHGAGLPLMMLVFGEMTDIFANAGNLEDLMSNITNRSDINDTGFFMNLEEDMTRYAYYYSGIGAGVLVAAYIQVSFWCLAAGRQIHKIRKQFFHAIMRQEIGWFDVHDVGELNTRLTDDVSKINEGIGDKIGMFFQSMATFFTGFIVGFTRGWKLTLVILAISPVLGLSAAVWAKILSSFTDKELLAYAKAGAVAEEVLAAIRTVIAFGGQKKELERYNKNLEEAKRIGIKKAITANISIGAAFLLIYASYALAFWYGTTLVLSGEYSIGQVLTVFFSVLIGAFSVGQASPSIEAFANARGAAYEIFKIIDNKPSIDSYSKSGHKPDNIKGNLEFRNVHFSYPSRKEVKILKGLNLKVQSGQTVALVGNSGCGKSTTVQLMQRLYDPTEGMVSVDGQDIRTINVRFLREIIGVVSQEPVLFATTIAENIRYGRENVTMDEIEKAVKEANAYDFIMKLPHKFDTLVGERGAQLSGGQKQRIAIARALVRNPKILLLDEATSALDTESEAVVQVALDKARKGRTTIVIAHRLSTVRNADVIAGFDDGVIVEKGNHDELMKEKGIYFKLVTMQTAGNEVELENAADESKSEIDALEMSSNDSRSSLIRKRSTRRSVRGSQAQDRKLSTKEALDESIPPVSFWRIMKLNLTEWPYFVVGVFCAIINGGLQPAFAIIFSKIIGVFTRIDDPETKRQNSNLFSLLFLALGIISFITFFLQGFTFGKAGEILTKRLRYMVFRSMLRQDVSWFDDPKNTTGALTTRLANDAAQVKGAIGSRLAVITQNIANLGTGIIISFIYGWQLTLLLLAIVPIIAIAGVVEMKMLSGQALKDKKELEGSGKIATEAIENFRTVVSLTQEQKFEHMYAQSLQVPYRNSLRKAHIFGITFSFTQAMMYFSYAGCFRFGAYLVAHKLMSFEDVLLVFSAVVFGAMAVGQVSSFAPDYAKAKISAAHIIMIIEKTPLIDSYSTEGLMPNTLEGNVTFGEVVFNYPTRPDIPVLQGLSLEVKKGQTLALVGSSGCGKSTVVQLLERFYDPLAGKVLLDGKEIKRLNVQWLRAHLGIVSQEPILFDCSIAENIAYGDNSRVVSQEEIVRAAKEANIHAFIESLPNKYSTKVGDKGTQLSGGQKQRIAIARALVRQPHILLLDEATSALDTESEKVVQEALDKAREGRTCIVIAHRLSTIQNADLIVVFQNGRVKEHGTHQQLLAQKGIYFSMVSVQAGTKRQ
Experimental: as §1

[3] = In vitro plasma protein binding; assay type: in vitro ADME, monkey
Experimental: as §1
Compound 1 (10 μM) was 97.2 and 97.5% protein bound in monkey and human plasma, respectively.

MDA-MB-231 = test: Tumor growth inhibition in xenograft model; assay type: in vivo, NSG mice
Experimental: Three human tumor cell lines, NCI-H441, MDA-MB-231, and SNU-5, were selected for use in tumor xenograft studies using athymic nude, NSG and CB.17 SCID mice, respectively. Pharmacodynamic modulation of MET phosphorylation was also measured in the NCI-H441 and SNU-5 xenografts. Tumor-bearing mice were orally dosed once-daily for 14 days (qd×14), and the tumors were resected and processed for MET phosphorylation analysis by Western blot. […]

CYP2C9 = test: Cytochrome P450 induction (mRNA levels) in fresh primary human hepatocytes; assay type: in vitro ADME
[4] = Hepatocyte stability assay; assay type: in vitro ADME, dog; conditions: hepatocytes
Experimental: as §2, §3

AXL = AXL (Homo sapiens, UniProt P30530); test: RTK autophosphorylation ELISA, A-172 cells stimulated with Gas6; assay type: cell-based; design: cell lines (PC-3, HUVEC, and A-172) stimulated with ligands to their respective receptors to induce autophosphorylation (MET, VEGFR2, and AXL); endogenous in cells; host or cells: A-172; conditions: ligand Gas6, read-out: Cellular IC50
AXL, sequence (P30530 26-894): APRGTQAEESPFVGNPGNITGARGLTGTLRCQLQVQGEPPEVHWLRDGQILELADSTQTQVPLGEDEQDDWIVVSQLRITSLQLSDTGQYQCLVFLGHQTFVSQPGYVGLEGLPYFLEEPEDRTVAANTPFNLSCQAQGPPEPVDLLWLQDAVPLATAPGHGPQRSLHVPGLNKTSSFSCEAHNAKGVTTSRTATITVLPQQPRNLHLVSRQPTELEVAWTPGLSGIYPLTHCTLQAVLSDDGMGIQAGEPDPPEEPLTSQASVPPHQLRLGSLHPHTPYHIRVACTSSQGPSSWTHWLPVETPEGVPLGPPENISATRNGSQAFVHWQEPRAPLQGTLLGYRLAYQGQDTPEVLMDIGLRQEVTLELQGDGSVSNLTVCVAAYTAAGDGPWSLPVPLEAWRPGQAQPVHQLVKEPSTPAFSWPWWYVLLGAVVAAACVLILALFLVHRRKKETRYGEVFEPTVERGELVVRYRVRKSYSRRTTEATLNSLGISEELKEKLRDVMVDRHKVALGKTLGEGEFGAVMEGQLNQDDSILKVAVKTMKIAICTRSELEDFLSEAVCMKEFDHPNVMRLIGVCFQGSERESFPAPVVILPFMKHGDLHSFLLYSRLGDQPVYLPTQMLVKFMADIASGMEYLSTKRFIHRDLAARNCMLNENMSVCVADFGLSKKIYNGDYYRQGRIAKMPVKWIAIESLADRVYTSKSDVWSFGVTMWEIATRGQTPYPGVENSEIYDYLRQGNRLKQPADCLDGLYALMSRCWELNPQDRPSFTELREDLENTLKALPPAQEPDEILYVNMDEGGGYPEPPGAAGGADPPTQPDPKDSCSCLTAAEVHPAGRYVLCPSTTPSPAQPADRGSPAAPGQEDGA
Experimental: The activity of Compound 1 was evaluated in cell-based assays that assessed the mechanistic effects of the compound in tumor and normal cells. Consistent with the biochemical data, Compound 1 is a potent inhibitor of cellular RTKs as assessed by analysis of receptor autophosphorylation as measured by enzyme-linked immunosorbent assay. Assays were performed using cell lines (PC-3, HUVEC, and A-172) stimulated with ligands to their respective receptors to induce autophosphorylation (MET, VEGFR2, and AXL) or a cell line (293A) transfected with an expression vector encoding the receptor of interest (MER). Inhibition of endogenous phosphorylated MET by Compound 1 in Hs 746T gastric carcinoma cells was also investigated due to the presence of the skip-splice mutation of exon 14 in the MET gene. This MET exon 14 alteration leads to increased MET stability and oncogenic activation, including constitutive MET phosphorylation. Also this mutation is known to occur in 3% of lung adenocarcinoma patients and to be sensitive to MET-targeted therapies (Frampton et al 2015).

[5] = GLP safety pharmacology: cardiovascular, telemeterized dogs; assay type: in vivo
Experimental: The nonclinical toxicity of Compound 1 was characterized in dose range-finding 7-day and definitive 28-day repeat-dose studies in rats and dogs, and in in vitro bacterial and mammalian genotoxicity bioassays. Compound 1 was also evaluated in definitive neurobehavioral, respiratory and cardiovascular safety pharmacology studies.

[6] = Tablet versus PIB formulation, single oral 20 mg dose, parallel design; assay type: in vivo, dogs; conditions: for half-life: po, read-out: t1/2, z (mean) (converted)
Experimental: In a parallel design study with a total of 24 dogs (1:1 treatment allocation ratio), Group 1 received Compound 1 as a 20-mg oral tablet and Group 2 received a 20-mg reconstituted oral suspension of the PIB formulation. For each dose group, blood samples were collected from each animal at pre-dose and up to 24 hours post-dose for Compound 1 plasma concentration measurements.

Question: Which results are given for `CNC(=O)c1cc2c(Oc3ccc(NC(=O)C4(C(=O)Nc5ccc(F)cc5)CC4)cc3)ccnc2cc1OC` [Compound 1, 1-N′-(4-Fluorophenvl)-1-N-[4-[7-methoxy-6-(methylcarbamovl)quinolin-4-yl]oxyphenyl]cyclopropane-1,1-dicarboxamide]?
Answer: bioavailability ([1]; rat, plasma, po, 0.09-0.27 mg/kg, read-out: Oral absolute bioavailability): 62 to 77%; half-life ([1]; rat, plasma, after oral administration, read-out: terminal phase half-life (t1/2, z)): 4.5 to 5.3 h; Tmax ([1]; rat, plasma, single oral dose, read-out: Median time to maximum plasma concentration (Tmax)): 2 to 3 h; clearance ([1]; rat, plasma, single-dose IV 0.09-0.27 mg/kg, read-out: mean plasma clearance (CL) (converted)): 0.39 mL/min/kg; half-life ([1]; rat, plasma, single-dose IV, read-out: mean plasma t1/2, z (converted)): ~9 h; Vd ([1]; rat, plasma, single-dose IV, read-out: mean volume of distribution at steady-state (Vss)): 0.167 L/kg; increase of exposure (Cmax and AUC0-inf) with dose ([1]; single oral doses 0.09-0.27 mg/kg): approximately dose proportionally; CLint [2]: 0.317 mL/min/g liver; substrate of transporter (BCRP): not to be a substrate; IC50 (BCRP; strong inhibitor): 189 nM; substrate of transporter (P-gp): not to be a substrate; IC50 (P-gp; strong inhibitor): 59 nM; protein bound ([3]; 10 μM): 97.2%; fraction unbound ([3]; monkey, plasma, 0.2 and 1 μM): < 0.01; TGI (%) (MDA-MB-231; 3 mg/kg qd × 14 oral, p-value 0.0001): 73.6%; TGI (%) (MDA-MB-231; 10 mg/kg qd × 14 oral, p-value <0.0001): 78.6%; EC50 (CYP2C9; human, fresh primary human hepatocytes, mRNA induction, read-out: half-maximal effective concentration (EC50)): 1710 nM; maximal induction effect (Emax) (CYP2C9; mRNA, 0.1-100 μM): 5 fold; CLint [4]: 1.08 mL/min/g liver; IC50 (AXL): 3.4 nM; plasma Cmax relative to hERG channel IC50 ([5]; 18 mg/kg single dose, Cmax higher than IC50): approximately 2 fold; Cmax ([5]; dog, plasma, oral, single dose 18 mg/kg, male telemeterized dogs): ~7 µM; QTc interval ([5]; male telemeterized dogs, single doses as high as 18 mg/kg): no QTc interval prolongation; effect on cardiovascular parameters ([5]; single oral doses as high as 18 mg/kg, through 18 hours postdose): no significant effect on cardiovascular parameters; mean AUC0-24 of PIB formulation higher than tablet formulation ([6]; 20 mg single oral dose): 49%; mean Cmax of PIB formulation higher than tablet formulation ([6]; 20 mg single oral dose): 61%; Tmax ([6]; beagle, dog, plasma, oral, 20 mg, both formulations (PIB and tablet), read-out: median tmax): 3 h; half-life ([6]; beagle, dog, plasma, 20 mg, 20 mg reconstituted oral suspension of PIB formulation): 4.85 h; half-life ([6]; beagle, dog, plasma, 20 mg, 20-mg oral tablet): 5.66 h
